15 molecules from patent publication US6472391B2, “Nitrogen-containing heterocyclic compounds” (Millennium Pharmaceuticals, Inc., priority 1996, dated 2002) can be followed below.

One may read the melting point as the temperature, or range, at which the solid turns liquid. On to `COc1cc2ncnc(N3CCN(C(=S)NCCCCc4ccccc4)CC3)c2cc1OC` [Compound 7, 4-(6,7-Dimethoxy-4-quinazolinyl)-N-(4-phenylbutyl)-1-piperazinethiocarboxamide], for which the melting point lay within 112 to 114 °C.

As to `COc1cc2ncnc(N3CCN(C(=S)Nc4ccccc4)CC3)c2cc1OC` [Compound 2, 4-(6,7-Dimethoxy-4-quinazolinyl)-N-phenyl-1-piperazinethiocarboxamide], the melting point is 230 to 232 °C.

`COc1cc2cc(Cl)nc(N3CCN(C(=O)Nc4ccc([N+](=O)[O-])cc4)CC3)c2cc1OC` [Compound 114, 4-(3-Chloro-6,7-dimethoxy-1-isoquinolyl)-N-(4-nitrophenyl)-1-piperazinecarboxamide]: the melting point lay in the range of 227 to 228 °C.

`COc1cc2ncnc(N3CCN(C(=O)Nc4ccc(N5CCOCC5)cc4)CC3)c2cc1OC` [Compound 117, 4-(6,7-Dimethoxy-4-quinazolinyl)-N-(4-morpholinophenyl)-1-piperazinecarboxamide] returned a melting point of 254 to 256 °C.

Regarding `CCOC(=O)c1cnc2cc(OC)c(OC)cc2c1N1CCN(C(=O)Nc2ccc(Oc3ccccc3)cc2)CC1` [Compound 408, 4-(6,7-Dimethoxy-3-ethoxycarbonyl-4-quinolyl)-N-(4-phenoxyphenyl)-1-piperazinecarboxamide], the melting point is 163 to 164 °C.

On to `COc1cc2ncnc(N3CCN(C(=O)Nc4cccc(Br)c4)CC3)c2cc1OC` [Compound 44, N-(3-Bromophenyl)-4-(6,7-dimethoxy-4-quinazolinyl)-1-piperazinecarboxamide], for which the melting point fell in the range of 221 to 222 °C.

`CCc1ccc(NC(=O)N2CCN(c3ncnc4cc(OC)c(OC)cc34)CC2)cc1` [Compound 18, N-(4-Ethylphenyl)-4-(6,7-Dimethoxy-4-quinazolinyl)-1-piperazinecarboxamide] yielded a melting point of 251 to 252 °C.

Molecule `COc1cc2ncnc(N3CCN(C(=O)Nc4ccc(Cl)cc4[N+](=O)[O-])CC3)c2cc1OC` [Compound 234, N-(4-Chloro-2-nitrophenyl)-4-(6,7-dimethoxy-4-quinazolinyl)-1-piperazinecarboxamide] registered a melting point of 205 to 206 °C.

Regarding `COc1cc2ncnc(N3CCN(C(=O)Nc4cccc([N+](=O)[O-])c4)CC3)c2cc1OC` [Compound 76, 4-(6,7-Dimethoxy-4-quinazolinyl)-N-(3-nitrophenyl)-1-piperazinecarboxamide], the melting point was in the range of 123 to 125 °C.

`COc1cc2ncnc(N3CCN(C(=S)NC(=O)C=Cc4ccccc4)CC3)c2cc1OC` [Compound 143, N-Cinnamoyl-4-(6,7-dimethoxy-4-quinazolinyl)-1-piperazinethiocarboxamide] came in with a melting point of 184 to 186 °C.

Molecule `COc1cc2nncc(N3CCN(C(=S)NCc4cccnc4)CC3)c2cc1OC` [Compound 427, 4-(6,7-Dimethoxy-4-cinnolinyl)-N-(3-picolyl)-1-piperazinethiocarboxamide] registered a melting point of 181 to 190 °C.

Consider `S=C(NCc1ccccc1)N1CCN(c2ncnc3cc4ccccc4cc23)CC1` [Compound 365, 4-(4-Benzo[g]quinazolinyl)-N-benzyl-1-piperazinethiocarboxamide], for which the melting point fell in the range of 187 to 188 °C.

For the molecule `COc1cc2ncnc(N3CCN(C(=O)Nc4cc(Cl)cc(Cl)c4)CC3)c2cc1OC` [Compound 55, N-(3,5-Dichlorophenyl)-4-(6,7-dimethoxy-4-quinazolinyl)-1-piperazinecarboxamide], the melting point lay within 139 to 140 °C.

`CC(C)c1ccc(NC(=O)N2CCN(c3ncnc4c(I)cc(I)cc34)CC2)cc1` [Compound 379, 4-(6,8-Diiodo-4-quinazolinyl)-N-(4-isopropylphenyl)-1-piperazinecarboxamide] gave a melting point of 267 to 269 °C.

As for `COc1cc2ncnc(N3CCCN(C(=O)Nc4ccc(Oc5ccccc5)cc4)CC3)c2cc1OC` [Compound 435, 4-(6,7-Dimethoxy-4-quinazolinyl)-N-(4-phenoxyphenyl)-1-homopiperazinecarboxamide], the melting point is 93 to 96 °C.
